Results published in PubChem BioAssay (NCI).
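Values below derive from 48-hour exposures of cells grown in 96-well plates, with endpoints linearly interpolated between the two concentrations bracketing the appropriate inhibition level. GI50 is the concentration that inhibits growth by half. TGI is the concentration that stops growth completely.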

Tests used:
Assay in all cases: DTP human tumour cell line panel, 48 h; in the data active = GI50 below about 0.43 µM; inactive = the rest
NCI-H522 lung = tested on: NCI-H522 lung
A498 renal = tested on: A498 renal
CAKI-1 renal = tested on: CAKI-1 renal
HOP-62 NSCLC = tested on: HOP-62 NSCLC
UACC-257 melanoma = tested on: UACC-257 melanoma
HCT-116 colon = tested on: HCT-116 colon
OVCAR-4 ovarian = tested on: OVCAR-4 ovarian
OVCAR-3 ovarian = tested on: OVCAR-3 ovarian
RPMI-8226 leukemia = tested on: RPMI-8226 leukemia
SK-MEL-28 melanoma = tested on: SK-MEL-28 melanoma
UO-31 renal = tested on: UO-31 renal
MCF7 breast = tested on: MCF7 breast
NCI-H460 lung = tested on: NCI-H460 lung
NCI-H23 lung = tested on: NCI-H23 lung
786-0 renal = tested on: 786-0 renal
MDA-MB-435 = tested on: MDA-MB-435
SF-539 CNS = tested on: SF-539 CNS
M14 melanoma = tested on: M14 melanoma
HOP-92 NSCLC = tested on: HOP-92 NSCLC
BT-549 breast = tested on: BT-549 breast
SF-268 CNS = tested on: SF-268 CNS
EKVX NSCLC = tested on: EKVX NSCLC
NCI/ADR-RES ovarian = tested on: NCI/ADR-RES ovarian
CCRF-CEM leukemia = tested on: CCRF-CEM leukemia
U251 CNS = tested on: U251 CNS
T-47D breast = tested on: T-47D breast
MDA-MB-468 breast = tested on: MDA-MB-468 breast
IGROV1 ovarian = tested on: IGROV1 ovarian
OVCAR-5 ovarian = tested on: OVCAR-5 ovarian
SR leukemia = tested on: SR leukemia
SK-MEL-5 melanoma = tested on: SK-MEL-5 melanoma
OVCAR-8 ovarian = tested on: OVCAR-8 ovarian
ACHN renal = tested on: ACHN renal
K-562 leukemia = tested on: K-562 leukemia
MALME-3M melanoma = tested on: MALME-3M melanoma
HT29 colon = tested on: HT29 colon
UACC-62 melanoma = tested on: UACC-62 melanoma
SF-295 CNS = tested on: SF-295 CNS
MOLT-4 leukemia = tested on: MOLT-4 leukemia
SN12C renal = tested on: SN12C renal
NCI-H226 lung = tested on: NCI-H226 lung
HCC-2998 colon = tested on: HCC-2998 colon
TK-10 renal = tested on: TK-10 renal
DU-145 prostate = tested on: DU-145 prostate
HCT-15 colon = tested on: HCT-15 colon
SNB-19 CNS = tested on: SNB-19 CNS
RXF 393 renal = tested on: RXF 393 renal
KM12 colon = tested on: KM12 colon
COLO 205 colon = tested on: COLO 205 colon
PC-3 prostate = tested on: PC-3 prostate
SK-OV-3 ovarian = tested on: SK-OV-3 ovarian
HL-60(TB) leukemia = tested on: HL-60(TB) leukemia
SNB-75 CNS = tested on: SNB-75 CNS
A549 NSCLC = tested on: A549 NSCLC
SK-MEL-2 melanoma = tested on: SK-MEL-2 melanoma
MDA-MB-231 breast = tested on: MDA-MB-231 breast
SW-620 colon = tested on: SW-620 colon
HS 578T breast = tested on: HS 578T breast
LOX IMVI melanoma = tested on: LOX IMVI melanoma

O=C(Cn1c(/C=C/c2ccccc2)nc2ccccc2c1=O)Nc1ccc(Cl)cc1
64800 nM: TGI (UO-31 renal) | TGI (786-0 renal)
46000 nM: TGI (TK-10 renal)
47500 nM: TGI (T-47D breast)
80100 nM: TGI (HOP-62 NSCLC)
40900 nM: TGI (A498 renal)
49600 nM: TGI (ACHN renal)
53800 nM: TGI (SNB-75 CNS)
inactive: GI50 (NCI-H522 lung) 83400 nM | GI50 (A498 renal) 22200 nM | GI50 (CAKI-1 renal) 69000 nM | GI50 (HOP-62 NSCLC) 24700 nM | GI50 (UACC-257 melanoma) > 100000 nM | GI50 (HCT-116 colon) 46000 nM | GI50 (OVCAR-4 ovarian) 9540 nM | GI50 (OVCAR-3 ovarian) 60600 nM | GI50 (RPMI-8226 leukemia) > 100000 nM | GI50 (SK-MEL-28 melanoma) > 100000 nM | GI50 (UO-31 renal) 21300 nM | GI50 (MCF7 breast) > 100000 nM | GI50 (NCI-H460 lung) 39600 nM | GI50 (NCI-H23 lung) 34400 nM | GI50 (786-0 renal) 18400 nM | GI50 (MDA-MB-435) > 100000 nM | GI50 (SF-539 CNS) 30900 nM | GI50 (M14 melanoma) > 100000 nM | GI50 (HOP-92 NSCLC) 11200 nM | GI50 (BT-549 breast) > 100000 nM | GI50 (SF-268 CNS) > 100000 nM | GI50 (EKVX NSCLC) > 100000 nM | GI50 (NCI/ADR-RES ovarian) 71400 nM | GI50 (CCRF-CEM leukemia) > 100000 nM | GI50 (U251 CNS) 13900 nM | GI50 (T-47D breast) 15800 nM | GI50 (MDA-MB-468 breast) 29200 nM | GI50 (IGROV1 ovarian) 70100 nM | GI50 (OVCAR-5 ovarian) > 100000 nM | GI50 (SR leukemia) > 100000 nM | GI50 (SK-MEL-5 melanoma) > 100000 nM | GI50 (OVCAR-8 ovarian) > 100000 nM | GI50 (ACHN renal) 16000 nM | GI50 (K-562 leukemia) > 100000 nM | GI50 (MALME-3M melanoma) 71300 nM | GI50 (HT29 colon) > 100000 nM | GI50 (UACC-62 melanoma) > 100000 nM | GI50 (SF-295 CNS) 26800 nM | GI50 (MOLT-4 leukemia) > 100000 nM | GI50 (SN12C renal) 16700 nM | GI50 (NCI-H226 lung) 23900 nM | GI50 (HCC-2998 colon) > 100000 nM | GI50 (TK-10 renal) 21400 nM | GI50 (DU-145 prostate) > 100000 nM | GI50 (HCT-15 colon) > 100000 nM | GI50 (SNB-19 CNS) 32700 nM | GI50 (RXF 393 renal) 14400 nM | GI50 (KM12 colon) > 100000 nM | GI50 (COLO 205 colon) > 100000 nM | GI50 (PC-3 prostate) > 100000 nM | GI50 (SK-OV-3 ovarian) 24800 nM | GI50 (HL-60(TB) leukemia) > 100000 nM | GI50 (SNB-75 CNS) 19400 nM | GI50 (A549 NSCLC) 87200 nM | GI50 (SK-MEL-2 melanoma) > 100000 nM
35300 nM: TGI (RXF 393 renal)
57400 nM: TGI (SK-OV-3 ovarian)
32200 nM: TGI (HOP-92 NSCLC)
> 100000 nM: TGI (NCI-H522 lung) | TGI (CAKI-1 renal) | TGI (UACC-257 melanoma) | TGI (HCT-116 colon) | TGI (OVCAR-4 ovarian) | TGI (OVCAR-3 ovarian) | TGI (RPMI-8226 leukemia) | TGI (SK-MEL-28 melanoma) | TGI (MCF7 breast) | TGI (NCI-H460 lung) | TGI (NCI-H23 lung) | TGI (MDA-MB-435) | TGI (SF-539 CNS) | TGI (M14 melanoma) | TGI (BT-549 breast) | TGI (SF-268 CNS) | TGI (EKVX NSCLC) | TGI (NCI/ADR-RES ovarian) | TGI (CCRF-CEM leukemia) | TGI (U251 CNS) | TGI (MDA-MB-468 breast) | TGI (IGROV1 ovarian) | TGI (OVCAR-5 ovarian) | TGI (SR leukemia) | TGI (SK-MEL-5 melanoma) | TGI (OVCAR-8 ovarian) | TGI (K-562 leukemia) | TGI (MALME-3M melanoma) | TGI (HT29 colon) | TGI (UACC-62 melanoma) | TGI (SF-295 CNS) | TGI (MOLT-4 leukemia) | TGI (SN12C renal) | TGI (NCI-H226 lung) | TGI (HCC-2998 colon) | TGI (DU-145 prostate) | TGI (HCT-15 colon) | TGI (SNB-19 CNS) | TGI (KM12 colon) | TGI (COLO 205 colon) | TGI (PC-3 prostate) | TGI (HL-60(TB) leukemia) | TGI (A549 NSCLC) | TGI (SK-MEL-2 melanoma)

CC1=C(C=O)C2=C(C)C3(CC3)[C@@](C)(O)C(=O)C2=C1
495 nM: TGI (MDA-MB-435)
547 nM: TGI (SNB-75 CNS)
440 nM: TGI (BT-549 breast)
333 nM: TGI (NCI-H522 lung)
2320 nM: TGI (TK-10 renal)
618 nM: TGI (OVCAR-3 ovarian)
317 nM: TGI (HCT-116 colon)
inactive: GI50 (A498 renal) 996 nM | GI50 (TK-10 renal) 519 nM | GI50 (SK-OV-3 ovarian) 678 nM
703 nM: TGI (HL-60(TB) leukemia)
367 nM: TGI (MDA-MB-231 breast)
538 nM: TGI (IGROV1 ovarian)
977 nM: TGI (MOLT-4 leukemia)
523 nM: TGI (SN12C renal)
293 nM: TGI (RXF 393 renal)
361 nM: TGI (NCI-H23 lung)
459 nM: TGI (COLO 205 colon)
3990 nM: TGI (OVCAR-4 ovarian)
1180 nM: TGI (SK-MEL-2 melanoma)
295 nM: TGI (LOX IMVI melanoma)
566 nM: TGI (T-47D breast)
781 nM: TGI (SK-MEL-28 melanoma)
341 nM: TGI (U251 CNS)
576 nM: TGI (MCF7 breast)
418 nM: TGI (UACC-257 melanoma)
765 nM: TGI (K-562 leukemia)
381 nM: TGI (SK-MEL-5 melanoma)
2460 nM: TGI (A498 renal)
695 nM: TGI (SR leukemia)
1340 nM: TGI (SNB-19 CNS)
562 nM: TGI (OVCAR-8 ovarian)
387 nM: TGI (SF-295 CNS)
491 nM: TGI (786-0 renal)
359 nM: TGI (UO-31 renal) | TGI (SF-539 CNS)
372 nM: TGI (UACC-62 melanoma)
370 nM: TGI (HCT-15 colon)
1010 nM: TGI (A549 NSCLC)
1310 nM: TGI (NCI/ADR-RES ovarian) | TGI (DU-145 prostate)
518 nM: TGI (HOP-62 NSCLC)
463 nM: TGI (M14 melanoma)
344 nM: TGI (MDA-MB-468 breast)
338 nM: TGI (HCC-2998 colon)
543 nM: TGI (ACHN renal)
1800 nM: TGI (SK-OV-3 ovarian)
1090 nM: TGI (CAKI-1 renal)
694 nM: TGI (SW-620 colon)
533 nM: TGI (OVCAR-5 ovarian)
799 nM: TGI (HS 578T breast)
active: GI50 (NCI-H522 lung) 171 nM | GI50 (CAKI-1 renal) 306 nM | GI50 (MDA-MB-231 breast) 194 nM | GI50 (SW-620 colon) 255 nM | GI50 (HOP-62 NSCLC) 216 nM | GI50 (UACC-257 melanoma) 188 nM | GI50 (HCT-116 colon) 161 nM | GI50 (OVCAR-4 ovarian) 407 nM | GI50 (OVCAR-3 ovarian) 250 nM | GI50 (HS 578T breast) 259 nM | GI50 (SK-MEL-28 melanoma) 284 nM | GI50 (UO-31 renal) 170 nM | GI50 (MCF7 breast) 181 nM | GI50 (NCI-H23 lung) 180 nM | GI50 (786-0 renal) 209 nM | GI50 (MDA-MB-435) 213 nM | GI50 (SF-539 CNS) 178 nM | GI50 (M14 melanoma) 212 nM | GI50 (LOX IMVI melanoma) 153 nM | GI50 (BT-549 breast) 190 nM | GI50 (EKVX NSCLC) 244 nM | GI50 (NCI/ADR-RES ovarian) 321 nM | GI50 (U251 CNS) 170 nM | GI50 (T-47D breast) 199 nM | GI50 (MDA-MB-468 breast) 159 nM | GI50 (IGROV1 ovarian) 236 nM | GI50 (OVCAR-5 ovarian) 223 nM | GI50 (SR leukemia) 212 nM | GI50 (SK-MEL-5 melanoma) 187 nM | GI50 (OVCAR-8 ovarian) 214 nM | GI50 (ACHN renal) 229 nM | GI50 (K-562 leukemia) 243 nM | GI50 (MALME-3M melanoma) 180 nM | GI50 (UACC-62 melanoma) 179 nM | GI50 (SF-295 CNS) 194 nM | GI50 (MOLT-4 leukemia) 218 nM | GI50 (SN12C renal) 221 nM | GI50 (HCC-2998 colon) 179 nM | GI50 (DU-145 prostate) 365 nM | GI50 (HCT-15 colon) 180 nM | GI50 (SNB-19 CNS) 342 nM | GI50 (RXF 393 renal) 147 nM | GI50 (COLO 205 colon) 226 nM | GI50 (HL-60(TB) leukemia) 227 nM | GI50 (SNB-75 CNS) 176 nM | GI50 (A549 NSCLC) 276 nM | GI50 (SK-MEL-2 melanoma) 348 nM
737 nM: TGI (EKVX NSCLC)
353 nM: TGI (MALME-3M melanoma)
